Assay results reported in patent US12492174B2, “Morpholine-3-carboxamide derivatives as prostaglandin E2 receptor 4 (EP4) agonists for the treatment of gastrointestinal and pulmonary diseases” (NXERA PHARMA UK LIMITED, priority 2022, dated 2025).

Experiments:
human EP4 = target: T1, human EP4 (Homo sapiens, UniProt P35408); assay: cAMP Gs functional assay (HTRF cAMP dynamic-2); type: cell-based; conditions: for Emax: HEK293, HEK293 cells transfected with EP4 Bacmam virus, positive control 10 uM PGE2; for EC50: HEK293 cells transfected with EP4 Bacmam virus, 30 mins at 37° C., −Log of the molarity (M), read-out: cAMP human EP4 pEC50 (converted)
T1 construct: expressed in transfected cells; host or cells: HEK293 cells transduced with EP4 BacMam virus
T1 sequence (P35408 whole entry): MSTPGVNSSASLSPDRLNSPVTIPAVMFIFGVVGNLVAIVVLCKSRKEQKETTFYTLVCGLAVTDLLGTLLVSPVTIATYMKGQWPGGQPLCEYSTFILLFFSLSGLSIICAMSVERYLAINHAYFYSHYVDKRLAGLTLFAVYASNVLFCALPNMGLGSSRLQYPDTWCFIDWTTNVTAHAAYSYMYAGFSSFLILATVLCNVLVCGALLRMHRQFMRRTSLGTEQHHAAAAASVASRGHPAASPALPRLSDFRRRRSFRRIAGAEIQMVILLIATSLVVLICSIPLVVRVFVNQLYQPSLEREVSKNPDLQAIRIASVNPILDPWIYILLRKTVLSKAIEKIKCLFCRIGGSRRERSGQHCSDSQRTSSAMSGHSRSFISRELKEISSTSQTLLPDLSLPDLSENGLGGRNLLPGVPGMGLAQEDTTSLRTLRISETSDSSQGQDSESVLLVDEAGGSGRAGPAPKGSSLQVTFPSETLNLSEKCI
Procedure: Cloning, Baculovirus generation, large scale infection of HEK293 cells and membrane preparation: Human prostaglandin E2 receptor 4 (EP4) was cloned into pBacMam expression vector (GeneScript, UK). Transposition of EP4 DNA was performed using Invitrogen's Bac-to-Bac Baculovirus Expression Systems. P0 baculovirus was generated by transfecting SF9 Cells with bacmid DNA using Cellfectin II transfection reagent (ThermoFisher Scientific, UK). Following P0 generation P1 virus was then generated ready for large scale infection and membrane preparation. HEK293 cells were grown in DMEM (ThermoFisher Scientific, UK), supplemented with 10% heat inactivated fetal bovine serum (FBS). Cells were infected at a seeding density of 3.5 million cells/mL in 500 cm^3 flasks at 5% v/v EP4 Bacman. Expression was carried out over a 36 hr period at 37° C. with 5% CO2. The cells were removed using PBS and a cell scrapper. The cell culture was centrifuged at 2500 RPM for 10 mins at 4° C. The supernatant was then poured off and the pellet stored at −80° C. The pellet was defrosted and re-suspended in 15 mL of homogenising buffer (20 mM HEPES, 10 mM EDTA, pH 7.4). Then homogenised in mechanical homogeniser (VMR) for 10 seconds. The membrane was centrifuged in centrifuge tubes at 40,000 g for 15 mins at 4° C. The supernatant was poured away and re-suspended in 15 mL of homogenising buffer. Homogenised for 20 seconds. The membrane was centrifuged at 40,000 g for 45 mins at 4° C. The membrane was re-suspended in 3 mL of storage buffer (20 mM HEPES, 0.1 mM EDTA, pH 7.4) mixing well. The resulting membranes were then stored at −80° C.
cAMP Gs Functional Assay: cAMP production following EP4 receptor activation was determined using the Homogeneous Time-Resolved Fluorescence (HTRF) cAMP dynamic-2 assay (Cisbio, France). HEK293 cells were transfected using a 0.5% EP4 Bacmam virus for 36 hours, before dissociating the cells, and freezing at −150° C.
On the day of testing, increasing concentration of test compounds, alongside positive controls (10 uM PGE2 (Tocris, Abingdon, UK)) and negative control (DMSO (Sigma-Aldrich, UK) were added to a ProxiPlate-384 Plus, White 384-shallow well Mircoplate, (PerkinElmer, USA) using the ECHO dispense.
Cells were defrosted in a water bath and resuspended in DMEM supplemented with 10% FBS before centrifuging at 1200 RPM for 5 mins to form a pellet. The pellet was resuspended in assay buffer (DMEM+0.5 mM IBMX (Tocris, Abingdon, UK)) to 0.5×10^6 cells/mL. Cell suspension, for a final assay concentration of 5000 cell/well was added using the multidrop to the pre-dispensed assay plate. The plate was then incubated at 37° C. for 30 mins, with 5% CO2. The cAMP production was determined as manufacturer's instructions, before plates were read on a PheraStar fluorescence plate reader (BMG LabTech, Germany).
The pEC50 values (−Log of the molarity (M) in mol/liter) were calculated from the mid-point of the curve using dotmatics as shown in Table 3.

[1] = Unidirectional Caco-2 cell permeability assay; type: in vitro ADME; conditions: human, n=2, apical pH 6.5, basolateral pH 7.4, 1 hour, 37° C.
Procedure: Caco-2 cells (ECACC) were seeded onto 24-well Transwell plates at 2×10^5 cells per well and used in confluent monolayers after a 21 day culture at 37° C. under 5% CO2. Test compounds were incubated at 10 μM, 0.2% DMSO final, n=2 in assay buffer (Hanks balanced salt solution supplemented with 25 mM HEPES, adjusted to pH 6.5). Hanks balanced salt solution supplemented with 25 mM HEPES, adjusted to pH 7.4 (0.2% DMSO final) was used for the basolateral chamber (as receiver).
Incubations were performed at 37° C., with samples removed from both donor and acceptor chambers at T=0 and 1 hour and compound analysed by mass spectrometry (LC-MS/MS) including an analytical internal standard (0.5 μM carbamazepine).
Apparent permeability (Papp) values are shown in Table 4 and were determined from the relationship:
Where V is the volume of each Transwell compartment (apical 125 μL, basolateral 600 μL), and concentrations are the relative MS responses for compound (normalized to internal standard) in the donor chamber before incubation and acceptor chamber at the end of the incubation Area=area of cells exposed for drug transfer (0.33 cm^2).
Lucifer Yellow (LY) was added to the apical buffer in all wells to assess viability of the cell layer. As LY cannot freely permeate lipophilic barriers, a high degree of LY transport indicates poor integrity of the cell layer and wells with a LY Papp>10×10^−6 cm/s were rejected.
Compound recovery from the wells was determined from MS responses (normalized to internal standard) in donor and acceptor chambers at the end of incubation compared to response in the donor chamber pre-incubation.

Compound: Cc1cc(S(N)(=O)=O)ccc1-c1cccc(CN2CCOC[C@@H]2C(=O)N[C@@H](C)c2ccc(C(=O)O)c(O)c2)c1 [Example 25, 2-hydroxy-4-((S)-1-((R)-4-((2′-methyl-4′-sulfamoyl-[1,1′-biphenyl]-3-yl)methyl)morpholine-3-carboxamido)ethyl)benzoic acid]
- Emax (human EP4): 97%
- EC50 (human EP4): 6.31e-09 M
- Papp A→B at 1 h, 10 μM [1]: < 0.1 ×10⁻⁶ cm/s

Compound: Cc1cc(C(N)=O)ccc1-c1cc(O)cc(CN2CCOC[C@@H]2C(=O)N[C@@H](C)c2ccc(-c3nnn[nH]3)cc2)c1 [Example 36, (R)—N-((S)-1-(4-(1H-tetrazol-5-yl)phenyl)ethyl)-4-((4′-carbamoyl-5-hydroxy-2′-methyl-[1,1′-biphenyl]-3-yl)methyl)morpholine-3-carboxamide]
- Emax (human EP4): 96%
- EC50 (human EP4): 2.51e-10 M
- Papp A→B at 1 h, 10 μM [1]: 0.11 ×10⁻⁶ cm/s
